PubChem BioAssay AID1259408 (Genetic Toxicology Data Bank (GENE-TOX), 2018)
Calls of active or inactive are those of the source. The rule behind the calls is not given here.

Tested on: GENE-TOX genotoxicity assays, various organisms and cells
Test: GENE-TOX mutagenicity studies
Settings: for call: Assay Type: In vivo carcinogenicity studies
[1] = Species/Cell Type: Escherichia coli polA (W3119 vs P3478), Assay Type: Rec-assay, DNA effects (bacterial DNA repair), Assay Code: RE1-, Evaluation Type: Evaluation A (Pre-1980)
[2] = Species/Cell Type: Saccharomyces cerevisiae, Assay Type: Mitotic recombination or gene conversion, Assay Code: YEC+, Evaluation Type: Evaluation A (Pre-1980)
[3] = Species/Cell Type: Saccharomyces cerevisiae, Assay Type: Mitotic recombination or gene conversion, Assay Code: YEH+, Evaluation Type: Evaluation A (Pre-1980)
[4] = Species/Cell Type: Salmonella typhimurium (one or more of the five standard strains: TA98, TA100, TA1535, TA1537, and TA1538), Assay Type: Histidine reverse gene mutation, Ames assay, Assay Code: SALT, Evaluation Type: Evaluation A (Pre-1980)
[5] = Species/Cell Type: Mammalian polychromatic erythrocytes, Assay Type: Micronucleus test, chromosome aberrations, Assay Code: MNTT, Evaluation Type: Evaluation B (Post-1980)
[6] = Species/Cell Type: Escherichia coli polA (W3119 vs P3478), Assay Type: Rec-assay, DNA effects (bacterial DNA repair), Assay Code: RE1T, Evaluation Type: Evaluation A (Pre-1980)
[7] = Species/Cell Type: Bacillus subtilis (H17 vs M45), Assay Type: Rec-assay, spot test, DNA effects (bacterial DNA repair), Assay Code: REW-, Evaluation Type: Evaluation A (Pre-1980)
[8] = Species/Cell Type: Escherichia coli polA (W3119 vs P3478), Assay Type: Rec-assay, DNA effects (bacterial DNA repair), Assay Code: RE1+, Evaluation Type: Evaluation A (Pre-1980)
[9] = Species/Cell Type: Nonhuman, Assay Type: Sister-chromatid exchange (SCE) in vitro, Assay Code: SC2-, Evaluation Type: Evaluation B (Post-1980)
[10] = Species/Cell Type: Human lymphocytes, Assay Type: Sister-chromatid exchange (SCE) in vitro, Assay Code: SCL+D, Dose Response: With dose response, Evaluation Type: Evaluation B (Post-1980)
[11] = Species/Cell Type: Human, Assay Type: Sister-chromatid exchange (SCE) in vitro, Assay Code: SC1+D, Dose Response: With dose response, Evaluation Type: Evaluation B (Post-1980)

Structure (SMILES): c1cc2ccc3cccc4ccc(c1)c2c34
- mutagenic call (Species/Cell Type: Chinese hamster lung (V79) cells, Assay Type: Forward gene mutation at the HPRT or ouabain locus, Assay Code: V79-*, Activation: With metabolic activation, Evaluation Type: Evaluation A (Pre-1980)): inactive; negative
- mutagenic call (Species/Cell Type: Chinese hamster lung (V79) cells, Assay Type: Forward gene mutation, host-mediated assay, Assay Code: HMG-, Evaluation Type: Evaluation A (Pre-1980)): inactive; negative
- mutagenic call (Species/Cell Type: Fischer rat embryo (RLV/1706) cells, Assay Type: Cell transformation, viral enhanced, Assay Code: CTR-, Evaluation Type: Evaluation A (Pre-1980)): inactive; negative
- mutagenic call (Species/Cell Type: Human diploid fibroblasts, Assay Type: Unscheduled DNA synthesis (UDS) in vitro, DNA effects, Assay Code: UDH-*, Activation: With metabolic activation, Evaluation Type: Evaluation A (Pre-1980)): inactive; negative
- mutagenic call (Species/Cell Type: Mammalian polychromatic erythrocytes, Assay Type: Micronucleus test, chromosome aberrations, Assay Code: MNTT, Evaluation Type: Evaluation A (Pre-1980)): no conclusion
- mutagenic call (Species/Cell Type: Mouse (BALB/c-3T3) cells, Assay Type: Cell transformation, Assay Code: CTB-, Evaluation Type: Evaluation A (Pre-1980)): inactive; negative
- mutagenic call (Species/Cell Type: Mouse embryo (AKR/ME) cells, Assay Type: Cell transformation, Assay Code: CTK-, Evaluation Type: Evaluation A (Pre-1980)): inactive; negative
- mutagenic call (Species/Cell Type: Mouse, Sex: Male, Assay Type: Sperm morphology, Assay Code: SPI-, Evaluation Type: Evaluation A (Pre-1980)): inactive; negative
- mutagenic call (Species/Cell Type: Nonhuman, Assay Type: Chromosome aberrations in vitro, Assay Code: CY&-, Evaluation Type: Evaluation A (Pre-1980)): inactive; negative
- call (Species/Cell Type: Nonhuman, Assay Code: CCGT, Evaluation Type: Evaluation A (Pre-1980)): no conclusion
- mutagenic call (Species/Cell Type: Nonhuman, Assay Type: Sister-chromatid exchange (SCE) in vitro, Assay Code: SC2+, Evaluation Type: Evaluation B (Post-1980)): active; positive
- mutagenic call (Species/Cell Type: Nonhuman, Assay Type: Sister-chromatid exchange (SCE) in vitro, Assay Code: SC2T, Evaluation Type: Evaluation A (Pre-1980)): no conclusion
- mutagenic call (Species/Cell Type: Nonhuman, Assay Type: Sister-chromatid exchange (SCE) in vivo, Assay Code: SC3-, Evaluation Type: Evaluation A (Pre-1980)): inactive; negative
- mutagenic call (Species/Cell Type: Salmonella typhimurium (one or more of the five standard strains: TA98, TA100, TA1535, TA1537, and TA1538), Assay Type: Histidine reverse gene mutation, Ames assay, Assay Code: SAL-, Evaluation Type: Evaluation A (Pre-1980)): inactive; negative
- mutagenic call (Species/Cell Type: Syrian hamster embryo (SHE) cells, Assay Type: Cell transformation, clonal assay, Assay Code: CTC-, Evaluation Type: Evaluation A (Pre-1980)): inactive; negative
- mutagenic call (Species/Cell Type: Tradescantia species, Assay Type: Gene mutation, Assay Code: TRM+D, Dose Response: With dose response, Evaluation Type: Evaluation A (Pre-1980)): active; positive

Structure (SMILES): CC[C@H]1OC(=O)[C@H](C)[C@@H](O[C@H]2C[C@@](C)(OC)[C@@H](O)[C@H](C)O2)[C@H](C)[C@@H](O[C@@H]2O[C@H](C)C[C@H](N(C)C)[C@H]2O)[C@](C)(O)C[C@@H](C)C(=O)[C@H](C)[C@@H](O)[C@]1(C)O
- mutagenic call [1]: inactive; negative

Structure (SMILES): ClC=C(Cl)Cl
- mutagenic call (Species/Cell Type: Drosophila melanogaster, Assay Type: Sex-linked recessive lethal gene mutation, Assay Code: SRL-, Evaluation Type: Evaluation A (Pre-1980)): inactive; negative
- mutagenic call (Species/Cell Type: Fischer rat embryo (RLV/1706) cells, Assay Type: Cell transformation, viral enhanced, Assay Code: CTR+, Evaluation Type: Evaluation A (Pre-1980)): active; positive
- mutagenic call (Species/Cell Type: Mammalian polychromatic erythrocytes, Assay Type: Micronucleus test, chromosome aberrations, Assay Code: MNT+, Evaluation Type: Evaluation B (Post-1980)): active; positive
- mutagenic call (Species/Cell Type: Mouse, Sex: Female, Assay Type: Spot test, gene mutation, Assay Code: MST+, Evaluation Type: Evaluation A (Pre-1980)): active; positive
- mutagenic call (Species/Cell Type: Mouse, Sex: Male, Assay Type: Sperm morphology, Assay Code: SPI+, Evaluation Type: Evaluation A (Pre-1980)): active; positive
- call (Species/Cell Type: Nonhuman, Assay Code: CCG+L, Evaluation Type: Evaluation A (Pre-1980)): active; positive
- mutagenic call (Species/Cell Type: Nonhuman, Assay Type: Sister-chromatid exchange (SCE) in vitro, Assay Code: SC2T, Evaluation Type: Evaluation B (Post-1980)): no conclusion
- mutagenic call (Species/Cell Type: Saccharomyces cerevisiae, Assay Type: Forward and reverse gene mutation, mitotic recombination and gene conversion, host-mediated assay, Assay Code: HME+, Evaluation Type: Evaluation A (Pre-1980)): active; positive
- mutagenic call [2]: active; positive
- mutagenic call [3]: active; positive
- mutagenic call (Species/Cell Type: Saccharomyces cerevisiae, Assay Type: Reverse gene mutation, Assay Code: YER+, Evaluation Type: Evaluation A (Pre-1980)): active; positive
- mutagenic call [4]: no conclusion
- mutagenic call (Species/Cell Type: Tradescantia species, Assay Type: Gene mutation, Assay Code: TRM+, Evaluation Type: Evaluation A (Pre-1980)): active; positive

Structure (SMILES): CN(CCCCO)N=O
- mutagenic call [4]: no conclusion

Structure (SMILES): Nc1ccc(OCCO)c(N)c1
- mutagenic call [5]: no conclusion

Structure (SMILES): OC(c1ccccc1)C(c1ccccc1)c1ccccc1 (stereo not given)
- mutagenic call [6]: no conclusion

Structure (SMILES): [Be+2]
- mutagenic call [7]: inactive; negative

Structure (SMILES): Clc1ccc(Oc2c(Cl)cc(Cl)cc2Cl)cc1
- mutagenic call (Species/Cell Type: Saccharomyces cerevisiae, Assay Type: Forward gene mutation, Assay Code: YEF-, Evaluation Type: Evaluation A (Pre-1980)): inactive; negative
- mutagenic call (Species/Cell Type: Saccharomyces cerevisiae, Assay Type: Mitotic recombination or gene conversion, Assay Code: YEC-, Evaluation Type: Evaluation A (Pre-1980)): inactive; negative
- mutagenic call (Species/Cell Type: Saccharomyces cerevisiae, Assay Type: Mitotic recombination or gene conversion, Assay Code: YEH-, Evaluation Type: Evaluation A (Pre-1980)): inactive; negative

Structure (SMILES): O=BOO
- mutagenic call [8]: active; positive

Structure (SMILES): Nc1ccc(-c2nc(NCC(O)CO)c3ccccc3n2)s1 (stereo not given)
- mutagenic call [4]: no conclusion

Structure (SMILES): O=C1OC2(c3cc(Br)c(O)c(Br)c3Oc3c2cc(Br)c(O)c3Br)c2c(Cl)ccc(Cl)c21
- mutagenic call [7]: inactive; negative
- mutagenic call (Species/Cell Type: Bacillus subtilis (H17 vs M45T), Assay Type: Rec-assay, spot test, DNA effects (bacterial DNA repair), Assay Code: REX+, Evaluation Type: Evaluation A (Pre-1980)): active; positive

Structure (SMILES): O=C(OCN=Nc1ccccc1)c1ccccc1
- mutagenic call [6]: no conclusion

Structure (SMILES): Cc1cc(N=Nc2c(O)ccc3ccccc23)c(S(=O)(=O)O)cc1Cl
- mutagenic call [4]: no conclusion

Structure (SMILES): O=c1nc(NO)ccn1[C@@H]1O[C@H](CO)[C@@H](O)[C@H]1O
- mutagenic call (Species/Cell Type: Escherichia coli WP2, Assay Type: Tryptophan reverse gene mutation, Assay Code: WP2+D, Dose Response: With dose response, Evaluation Type: Evaluation A (Pre-1980)): active; positive
- mutagenic call (Species/Cell Type: Escherichia coli WP2 UVRA, Assay Type: Tryptophan reverse gene mutation, Assay Code: WPU+D, Dose Response: With dose response, Evaluation Type: Evaluation A (Pre-1980)): active; positive

Structure (SMILES): O=[N+]([O-])c1ccc(F)c([N+](=O)[O-])c1
- mutagenic call [8]: active; positive
- mutagenic call [9]: inactive; negative
- mutagenic call (Species/Cell Type: Saccharomyces cerevisiae, Assay Type: Forward gene mutation, Assay Code: YEF+, Evaluation Type: Evaluation A (Pre-1980)): active; positive
- mutagenic call [2]: active; positive
- mutagenic call [3]: active; positive

Structure (SMILES): O=C(CO)c1coc(=O)c2c(O)cccc12
- mutagenic call (Species/Cell Type: Bacillus subtilis (H17 vs M45), Assay Type: Rec-assay, spot test, DNA effects (bacterial DNA repair), Assay Code: REWT, Evaluation Type: Evaluation A (Pre-1980)): no conclusion

Structure (SMILES): CN(C)c1ccc(C#N)cc1
- mutagenic call [5]: no conclusion

Structure (SMILES): C1CN(P2(N3CC3)=NP(N3CC3)(N3CC3)=NP(N3CC3)(N3CC3)=N2)CCO1 (stereo not given)
- mutagenic call (Species/Cell Type: Human lymphocytes or leukocytes, Assay Type: Chromosome aberrations in vitro, Assay Code: CY7+, Evaluation Type: Evaluation A (Pre-1980)): active; positive
- mutagenic call [10]: active; positive
- mutagenic call [11]: active; positive
- mutagenic call (Species/Cell Type: Nonhuman, Assay Type: Sister-chromatid exchange (SCE) in vitro, Assay Code: SC2+D, Dose Response: With dose response, Evaluation Type: Evaluation B (Post-1980)): active; positive
- mutagenic call (Species/Cell Type: Rodents, Sex: Male, Assay Type: Dominant lethal test, Assay Code: DLT+, Evaluation Type: Evaluation A (Pre-1980)): active; positive

Structure (SMILES): OCC(S)CS (stereo not given)
- mutagenic call [1]: inactive; negative

Structure (SMILES): Clc1ccc(C(c2ccccc2Cl)C(Cl)Cl)cc1 (stereo not given)
- mutagenic call (Species/Cell Type: Nonhuman, Assay Type: Chromosome aberrations in vitro, Assay Code: CY&+, Evaluation Type: Evaluation A (Pre-1980)): active; positive

Structure (SMILES): [O]=[Zr]
- mutagenic call [9]: inactive; negative

Structure (SMILES): O/C=C/Cc1ccc2c(c1)OCO2
- mutagenic call (Species/Cell Type: Human diploid fibroblasts, Assay Type: Unscheduled DNA synthesis (UDS) in vitro, DNA effects, Assay Code: UDH+, Evaluation Type: Evaluation A (Pre-1980)): active; positive

Structure (SMILES): O=C(O)[C@H]1O[C@@H](N(O)c2ccc(-c3ccccc3)cc2)[C@H](O)[C@@H](O)[C@@H]1O
- mutagenic call (Species/Cell Type: Salmonella typhimurium (one or more of the five standard strains: TA98, TA100, TA1535, TA1537, and TA1538), Assay Type: Histidine reverse gene mutation, Ames assay, Assay Code: SAL+, Evaluation Type: Evaluation A (Pre-1980)): active; positive

Structure (SMILES): [Cl][Th]([Cl])([Cl])[Cl]
- mutagenic call [7]: inactive; negative

Structure (SMILES): O=c1[nH]c(=O)n([C@H]2C[C@H](O)[C@@H](CO)O2)cc1CO
- mutagenic call [10]: active; positive
- mutagenic call [11]: active; positive
